In paper PMC5513037, “Examining the influence of specificity ligands and ATP-competitive ligands on the overall effectiveness of bivalent kinase inhibitors” (Proteome Science, 2017):

Tests used:
Assay in all cases: KAM-matrix competition in K562 lysate;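 as to 0.001 uM KAM: median log10 fold change of treatment over DMSO control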;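 as to 0.01 uM KAM: median log10 fold change of treatment over DMSO control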;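 as to 0.1 uM KAM: median log10 fold change of treatment over DMSO control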;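 as to 1 uM KAM: median log10 fold change of treatment over DMSO control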;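 as to 10 uM KAM: median log10 fold change of treatment over DMSO control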
Type in all cases: binding
MERTK = molecular target: T1, MERTK (Homo sapiens, UniProt Q12866);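 as to 0.001 uM KAM: median log10 fold change of treatment over DMSO control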;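 as to 0.01 uM KAM: median log10 fold change of treatment over DMSO control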;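 as to 0.1 uM KAM: median log10 fold change of treatment over DMSO control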;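 as to 1 uM KAM: median log10 fold change of treatment over DMSO control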;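 as to 10 uM KAM: median log10 fold change of treatment over DMSO control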
T1 construct: endogenous in cells; host or cells: K562
T1 sequence (Q12866 21-999): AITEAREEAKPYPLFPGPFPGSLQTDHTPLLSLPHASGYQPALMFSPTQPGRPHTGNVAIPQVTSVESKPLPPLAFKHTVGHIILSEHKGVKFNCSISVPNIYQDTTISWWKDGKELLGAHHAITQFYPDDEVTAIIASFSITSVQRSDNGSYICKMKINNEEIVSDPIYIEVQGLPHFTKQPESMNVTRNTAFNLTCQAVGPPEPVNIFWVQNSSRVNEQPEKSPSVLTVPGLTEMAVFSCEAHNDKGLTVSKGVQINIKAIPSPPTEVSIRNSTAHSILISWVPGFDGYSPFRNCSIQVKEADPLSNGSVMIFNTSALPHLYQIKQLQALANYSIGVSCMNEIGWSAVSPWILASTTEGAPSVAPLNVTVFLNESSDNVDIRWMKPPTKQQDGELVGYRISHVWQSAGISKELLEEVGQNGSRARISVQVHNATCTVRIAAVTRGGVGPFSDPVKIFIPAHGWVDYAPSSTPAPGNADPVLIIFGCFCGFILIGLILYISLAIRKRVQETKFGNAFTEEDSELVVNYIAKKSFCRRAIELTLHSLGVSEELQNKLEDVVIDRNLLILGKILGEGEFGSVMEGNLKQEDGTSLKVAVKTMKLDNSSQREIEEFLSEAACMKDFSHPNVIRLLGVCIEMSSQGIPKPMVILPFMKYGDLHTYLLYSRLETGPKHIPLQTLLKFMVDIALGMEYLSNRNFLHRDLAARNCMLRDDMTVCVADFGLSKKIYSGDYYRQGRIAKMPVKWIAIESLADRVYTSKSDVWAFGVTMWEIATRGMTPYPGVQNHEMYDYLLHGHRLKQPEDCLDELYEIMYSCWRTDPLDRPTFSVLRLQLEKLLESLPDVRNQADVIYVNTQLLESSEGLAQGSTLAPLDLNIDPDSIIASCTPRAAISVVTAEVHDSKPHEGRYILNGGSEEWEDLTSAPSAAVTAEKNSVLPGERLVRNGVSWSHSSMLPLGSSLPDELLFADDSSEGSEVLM
Protocol: (§1) Supplement 12953_2017_125_MOESM1_ESM.zip/MS_Supp Info.xlsx, sheet "KAM" | column: 10 uM KAM; 1 uM KAM; 0.1 uM KAM; 0.01 uM KAM; 0.001 uM KAM; RB50

STK17A = molecular target: T2, STK17A (Homo sapiens, UniProt Q9UEE5)
T2 construct: endogenous in cells; host or cells: K562 cell lysate
T2 sequence (Q9UEE5 1-414): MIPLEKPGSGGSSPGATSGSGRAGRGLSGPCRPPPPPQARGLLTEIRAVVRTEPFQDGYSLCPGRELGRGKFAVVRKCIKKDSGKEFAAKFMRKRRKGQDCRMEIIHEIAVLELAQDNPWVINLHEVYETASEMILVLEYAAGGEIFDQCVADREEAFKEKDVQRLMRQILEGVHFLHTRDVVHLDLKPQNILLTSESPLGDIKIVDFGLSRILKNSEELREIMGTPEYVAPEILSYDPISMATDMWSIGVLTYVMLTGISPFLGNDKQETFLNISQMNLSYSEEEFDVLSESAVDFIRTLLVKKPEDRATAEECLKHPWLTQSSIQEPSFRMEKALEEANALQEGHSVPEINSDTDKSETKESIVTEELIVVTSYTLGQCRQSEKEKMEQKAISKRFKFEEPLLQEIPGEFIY
Protocol: as §1

TBK1 = molecular target: T3, TBK1 (Homo sapiens, UniProt Q9UHD2)
T3 construct: endogenous in cells; host or cells: K562
T3 sequence (Q9UHD2 1-729): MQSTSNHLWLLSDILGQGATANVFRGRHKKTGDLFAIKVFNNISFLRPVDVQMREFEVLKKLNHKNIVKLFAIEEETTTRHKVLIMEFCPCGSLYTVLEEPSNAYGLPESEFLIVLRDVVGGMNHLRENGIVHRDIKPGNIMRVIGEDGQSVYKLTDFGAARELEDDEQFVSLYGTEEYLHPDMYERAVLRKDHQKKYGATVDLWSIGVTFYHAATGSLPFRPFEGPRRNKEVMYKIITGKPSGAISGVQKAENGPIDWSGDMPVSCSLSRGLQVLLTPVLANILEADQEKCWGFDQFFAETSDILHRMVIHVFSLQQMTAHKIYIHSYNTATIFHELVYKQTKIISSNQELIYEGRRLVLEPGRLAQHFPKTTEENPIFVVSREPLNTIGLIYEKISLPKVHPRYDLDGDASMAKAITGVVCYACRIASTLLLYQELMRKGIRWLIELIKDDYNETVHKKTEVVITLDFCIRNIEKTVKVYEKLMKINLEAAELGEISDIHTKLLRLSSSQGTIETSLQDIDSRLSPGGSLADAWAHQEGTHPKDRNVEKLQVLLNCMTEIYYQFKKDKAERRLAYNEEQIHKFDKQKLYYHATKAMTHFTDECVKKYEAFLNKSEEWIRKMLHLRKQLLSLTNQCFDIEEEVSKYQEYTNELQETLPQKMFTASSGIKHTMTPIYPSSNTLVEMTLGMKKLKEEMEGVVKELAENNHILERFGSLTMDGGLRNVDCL
Protocol: as §1

[1] = read-out: RB50 (the source's name)

N#CCc1ccc(Nc2nc(NCCCN)cc(Nc3cc(C4CC4)[nH]n3)n2)cc1 [KAM]
IC50 (MERTK; KAM 0.001-10 uM, read-out: RB50 (the source's name)): > 10000 nM | 0.001 uM KAM (MERTK; relative to 0 uM KAM = 0): -0.05728 | 0.01 uM KAM (MERTK; relative to 0 uM KAM = 0): -0.0237 | 0.1 uM KAM (MERTK; relative to 0 uM KAM = 0): -0.04893 | 1 uM KAM (MERTK; relative to 0 uM KAM = 0): -0.1208 | 10 uM KAM (MERTK; relative to 0 uM KAM = 0): -0.2454 | median Log10 fold change (STK17A; 0.001 uM KAM): -0.02395 | median Log10 fold change (STK17A; 0.01 uM KAM): -0.004192 | median Log10 fold change (STK17A; 0.1 uM KAM): -0.2117 | median Log10 fold change (STK17A; 1 uM KAM): -0.3947 | median Log10 fold change (STK17A; 10 uM KAM): -0.5099 | IC50 (STK17A; [1]): 457 nM | median Log10 fold change (TBK1; 0.001 uM KAM): -0.0003533 | median Log10 fold change (TBK1; 0.01 uM KAM): 0.01133 | median Log10 fold change (TBK1; 0.1 uM KAM): -0.1059 | median Log10 fold change (TBK1; 1 uM KAM): -0.5242 | median Log10 fold change (TBK1; 10 uM KAM): -0.6823 | IC50 (TBK1; [1]): 452 nM
